Experimental data: patent publication US20250154163A1, “Pyrimidinone-Containing 17-Beta-Hydroxysteroid Dehydrogenase Type 13 Inhibitors” (ENANTA PHARMACEUTICALS, INC., priority 2023, published 2025)

Biological target: T1, human HSD17β13 (stable HEK293T cell line overexpressing human HSD17β13) (Homo sapiens, UniProt Q7Z5P4)
T1 construct: expressed in transfected cells
T1 sequence (Q7Z5P4 20-300): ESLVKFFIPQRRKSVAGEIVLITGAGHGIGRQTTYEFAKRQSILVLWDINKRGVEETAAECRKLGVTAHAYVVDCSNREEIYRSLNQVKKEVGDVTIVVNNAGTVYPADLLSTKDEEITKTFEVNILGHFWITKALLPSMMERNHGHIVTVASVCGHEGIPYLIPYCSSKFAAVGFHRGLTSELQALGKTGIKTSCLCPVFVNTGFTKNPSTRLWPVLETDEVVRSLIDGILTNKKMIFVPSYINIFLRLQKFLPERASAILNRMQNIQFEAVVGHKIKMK
Test: HSD17β13 inhibitor cell-based screening assay (conversion of estradiol-d2 to estrone-d2 by RF-MS)
Details: conversion of estradiol-d2 to estrone-d2 after 24 hours
Experimental: The purpose of this cell-based assay is to determine the cellular efficacy (IC50) of HSD17β13 inhibitors in a stable HEK293 T cell line overexpressing human HSD17β13. The assay measures by Rapid Fire mass-spectrometry (RF-MS) the conversion of estradiol-d2 to estrone-d2. Cytotoxicity was also assessed via luminescent signal generated by the ATPlite viability assay reagent. To screen compounds for HSD17013 inhibition, black 384-well plates were seeded with 1000× concentration of compounds in a 9-point 1:3 dilution curve (final top concentration of 10 μM) as well as 1000× concentration of 17β-estradiol-d2 (5 μM final concentration) added to all wells. HEK293T cells stably overexpressing human HSD17013 and the parent HEK293T cell lines were then seeded in the plates on top of the compounds and substrate in MEM media containing 1% charcoal/dextran-treated FBS. Supernatant is collected and immediately frozen after 24 hours of incubation, and conversion of estradiol-d2 to estrone-d2 is measured at Pure Honey by RF-MS. The remaining media in the plate was removed from the wells and replaced with ATPlite viability assay reagent. Luminescent signal from the ATPlite reagent was measured on the Envision plate reader. 10 μL of 10 mM compounds stocks (1000×) dissolved in DMSO were pipetted into the appropriate wells on the 384 LDV plate (Labcyte; cat. no.: LP-0200) and the appropriate volumes of DMSO solvent were included onto an intermediate plate to further dilute the compound stocks to complete the 9-pt dose curve (final top concentration of 10 μM). 10 μL per well of 5 mM estradiol-d2 (1000×) (Cayman; item no.: 9002846) (5 μM final concentration) dissolved in DMSO was seeded into the appropriate number of wells on the same source plate as the compounds. The Echo 650 (Labcyte) was used for compound dilutions and dispensing both the compounds and the substrate onto a dry 384-well black assay plate (Falcon/Corning; cat. no.:353962). Afterwards, cells were immediately counted and seeded onto the plate. Cells were cultured for expansion in EMEM (ATCC; cat. no.: 30-2003)+10% FBS (Hyclone; cat. no.: SH3007003)+1×PenStrep (Gibco; cat. no.: 15140-122). All media for stable cell line overexpressing HSD17013 also included […] zeocin (Invitrogen; cat. no.: 46-0509) for selection. To prepare cells for seeding into the 384-well assay plate, cells were trypsinized for 3 minutes in the incubator. The Trypsin-EDTA (0.25%) (Gibco; cat. no.: 25200056) was neutralized with EMEM complete culture medium warmed to 37° C. Cells were then centrifugated at 300×g for 5 minutes at room temperature. The cell pellet was resuspended in phenol red-free MEM (Gibco; cat. no.: 51200-038)+1% charcoal/dextran-treated FBS (Hyclone; cat. no.: SH3006803) and 1×PenStrep warmed to 37° C. Cells were then counted using the TC20 automated cell-counter (Bio-Rad) and disposable duel chamber counting slides (Bio-Rad; cat. no.: 1450016) for a cell density of 1.5E5 cells/mL to then seed into the assay plate at 7.5E3 cells/well with 50 μL of media per well. Prior to the 24-hour time point, a solution of 1% formic acid (10×) (Honeywell; cat. no.: 94318) in MEM phenol red-free MEM+1% charcoal/dextran-treated FBS and 1×PenStrep was made. ATPlite luminescent ATP detection reagent (PerkinElmer; cat. no.: 6016739) was prepared according to the manufacturer's instructions. A new 384-well Falcon plate (collection plate) was seeded with 2 μL per well of 10× formic acid and then 18 μL of cell supernatant was added onto the formic acid, resulting in a 20 μL per well solution of 0.1% formic acid (1×) in supernatant. The plate of collected supernatant was immediately frozen on dry ice before being stored at −80° C. The collection plate was shipped to Momentum Biotechnologies for analysis. The remaining supernatant in the assay plate was discarded and 25 μL of ATPlite reagent was added to each well. […]

IC50 [nM]	SMILES
< 100	Cc1ncc(Cn2c(-c3cc(F)c(F)cc3C3CC3)nc3sc4c(O)c(Cl)ccc4c3c2=O)o1 [Example 61, 7-chloro-2-(2-cyclopropyl-4,5-difluorophenyl)-8-hydroxy-3-((2-methyloxazol-5-yl)methyl)benzo[4,5]thieno[2,3-d]pyrimidin-4(3H)-one]
< 100	O=c1c2c(nc(-c3cc(F)c(F)cc3C3CC3)n1Cc1ccno1)sc1c(O)c(Cl)ccc12 [Example 62, 7-chloro-2-(2-cyclopropyl-4,5-difluorophenyl)-8-hydroxy-3-(isoxazol-5-ylmethyl)benzo[4,5]thieno[2,3-d]pyrimidin-4(3H)-one]
< 100	O=c1c2c(nc(-c3cc(F)c(F)cc3C3CC3)n1Cc1cc(C(F)F)no1)sc1c(O)c(Cl)ccc12 [Example 65, 7-chloro-2-(2-cyclopropyl-4,5-difluorophenyl)-3-((3-(difluoromethyl)isoxazol-5-yl)methyl)-8-hydroxybenzo[4,5]thieno[2,3-d]pyrimidin-4(3H)-one]
< 100	O=c1c2c(nc(-c3ccc(C(F)(F)F)nc3C3CC3)n1Cc1cnc(C(F)(F)F)nc1)sc1c(O)c(Cl)ccc12 [Example 67, 7-chloro-2-(2-cyclopropyl-6-(trifluoromethyl)pyridin-3-yl)-8-hydroxy-3-((2-(trifluoromethyl)pyrimidin-5-yl)methyl)benzo[4,5]thieno[2,3-d]pyrimidin-4(3H)-one]
< 100	O=c1c2c(nc(-c3ccc(C(F)(F)F)nc3C3CC3)n1Cc1ccc(C(F)(F)F)nc1)sc1c(O)c(Cl)ccc12 [Example 68, 7-chloro-2-(2-cyclopropyl-6-(trifluoromethyl)pyridin-3-yl)-8-hydroxy-3-((6-(trifluoromethyl)pyridin-3-yl)methyl)benzo[4,5]thieno[2,3-d]pyrimidin-4(3H)-one]
< 100	CS(=O)(=O)c1ccc(-c2nc3sc4c(O)c(Cl)ccc4c3c(=O)n2Cc2ccc(C(F)(F)F)nc2)c(C2CC2)c1 [Example 69, 7-chloro-2-(2-cyclopropyl-4-(methylsulfonyl)phenyl)-8-hydroxy-3-((6-(trifluoromethyl)pyridin-3-yl)methyl)benzo[4,5]thieno[2,3-d]pyrimidin-4(3H)-one]
< 100	Cn1cc(Cn2c(-c3ccc(S(C)(=O)=O)cc3C3CC3)nc3sc4c(O)c(Cl)ccc4c3c2=O)ccc1=O [Example 70, 7-chloro-2-(2-cyclopropyl-4-(methylsulfonyl)phenyl)-8-hydroxy-3-((1-methyl-6-oxo-1,6-dihydropyridin-3-yl)methyl)benzo[4,5]thieno[2,3-d]pyrimidin-4(3H)-one]
< 100	COCCOc1ccc(-c2nc3sc4c(O)c(Cl)ccc4c3c(=O)n2Cc2cnco2)c(C2CC2)c1 [Example 74]
< 100	CS(=O)(=O)c1ccc(-c2nc3sc4c(O)c(Cl)ccc4c3c(=O)n2Cc2cnco2)c(C2CC2)c1 [Example 80]
< 100	CS(=O)(=O)c1ccc(-c2nc3sc4c(O)c(Cl)ccc4c3c(=O)n2Cc2cc(C(F)(F)F)no2)c(C2CC2)c1 [Example 81]
< 100	O=c1c2c(nc(-c3cc(F)c(Cl)cc3C3CC3)n1Cc1cc(C(F)(F)F)no1)sc1c(O)c(Cl)ccc12 [Example 84]
< 100	O=c1c2c(nc(-c3ccccc3C3CC3)n1Cc1cnco1)sc1c(O)c(Cl)ccc12 [Example 87]
< 100	COc1ccc(-c2nc3sc4c(O)c(Cl)ccc4c3c(=O)n2C[C@@H]2CC(=O)N(C)C2)c(C2CC2)c1 [Example 88]
< 100	O=c1c2c(nc(-c3ncc(F)cc3C3CC3)n1Cc1cnco1)sc1c(O)c(Cl)ccc12 [Example 89]
< 100	O=c1c2c(nc(-c3ncc(C(F)(F)F)cc3C3CC3)n1Cc1cnco1)sc1c(O)c(Cl)ccc12 [Example 90]
< 100	Cc1cc(-c2nc3sc4c(O)c(Cl)ccc4c3c(=O)n2Cc2cnco2)c(C2CC2)s1 [Example 91]

IC50 [nM]	SMILES
< 100	O=c1c2c(nc(-c3ccc(C(F)(F)F)nc3C3CC3)n1Cc1cnco1)sc1c(O)c(Cl)ccc12 [Example 92]
< 100	COc1ccc(-c2nc3sc4c(O)c(Cl)ccc4c3c(=O)n2Cc2cnco2)c(C2CC2)n1 [Example 93]
< 100	Cc1cc(C2CC2)c(-c2nc3sc4c(O)c(Cl)ccc4c3c(=O)n2Cc2cnco2)s1 [Example 94]
< 100	COCCn1cc(Cn2c(-c3ccc(OC)cc3C3CC3)nc3sc4c(O)c(Cl)ccc4c3c2=O)cn1 [Example 95]
< 100	N#Cc1ccc(-c2nc3sc4c(O)c(Cl)ccc4c3c(=O)n2Cc2cc(C(F)(F)F)no2)c(C2CC2)c1 [Example 98]
< 100	O=c1c2c(nc(-c3ncc(C(F)(F)F)cc3C3CC3)n1Cc1ccc(C(F)(F)F)nc1)sc1c(O)c(Cl)ccc12 [Example 100]
< 100	O=c1c2c(nc(-c3ncc(F)cc3C3CC3)n1Cc1cnc(C(F)(F)F)nc1)sc1c(O)c(Cl)ccc12 [Example 101]
< 100	O=c1c2c(nc(-c3ncc(F)cc3C3CC3)n1Cc1ccc(C(F)(F)F)nc1)sc1c(O)c(Cl)ccc12 [Example 102]
< 100	O=c1c2c(nc(-c3ncc(Cl)cc3C3CC3)n1Cc1cc(C(F)(F)F)no1)sc1c(O)c(Cl)ccc12 [Example 103]
< 100	COc1cc(C2CC2)c(-c2nc3sc4c(O)c(Cl)ccc4c3c(=O)n2Cc2cnco2)cc1Br [Example 104, 2-(5-bromo-2-cyclopropyl-4-methoxyphenyl)-7-chloro-8-hydroxy-3-(oxazol-5-ylmethyl)benzo[4,5]thieno[2,3-d]pyrimidin-4(3H)-one]
100 to 500	COc1cc(C2CC2)c(-c2nc3sc4c(O)c(Cl)ccc4c3c(=O)n2Cc2cnco2)cc1C1CC1 [Example 107, 7-chloro-2-(2,5-dicyclopropyl-4-methoxyphenyl)-8-hydroxy-3-(oxazol-5-ylmethyl)benzo[4,5]thieno[2,3-d]pyrimidin-4(3H)-one]
< 100	COc1cc(C2CC2)c(-c2nc3sc4c(O)c(Cl)ccc4c3c(=O)n2Cc2cnco2)cc1C [Example 108]
500 to 1000	COc1cc(C2CC2)c(-c2nc3sc4c(O)c(Cl)ccc4c3c(=O)n2Cc2cnco2)cc1C1CCCC1 [Example 109, 7-chloro-2-(5-cyclopentyl-2-cyclopropyl-4-methoxyphenyl)-8-hydroxy-3-(oxazol-5-ylmethyl)benzo[4,5]thieno[2,3-d]pyrimidin-4(3H)-one]
< 100	O=c1c2c(nc(-c3ccc(-c4ncco4)cc3C3CC3)n1Cc1cnco1)sc1c(O)c(Cl)ccc12 [Example 110, 7-chloro-2-(2-cyclopropyl-4-(oxazol-2-yl)phenyl)-8-hydroxy-3-(oxazol-5-ylmethyl)benzo[4,5]thieno[2,3-d]pyrimidin-4(3H)-one]
< 100	N#Cc1ccc(-c2nc3sc4c(O)c(Cl)ccc4c3c(=O)n2Cc2cnco2)c(C2CC2)c1 [Example 111, 4-(7-chloro-8-hydroxy-3-(oxazol-5-ylmethyl)-4-oxo-3,4-dihydrobenzo[4,5]thieno[2,3-d]pyrimidin-2-yl)-3-cyclopropylbenzonitrile]
